Patent US20080118441A1, “COMPOSITIONS AND METHODS FOR THE TREATMENT OF GASTROINTESTINAL CONDITIONS” (priority 2006, published 2008)

System: symptoms of a gastrointestinal condition
Experiment: ingestion of glutamine shortly after the present compositions
Type: in vivo
Conditions: glutamine ingested shortly after the compositions
Source text: In one example, the symptoms of a gastrointestinal condition will reappear rapidly if glutamine is ingested shortly after the present compositions. Exclusion of glutamine from the present compositions is therefore contemplated, and it may be advisable for persons being treated with the present compositions to reduce dietary consumption of glutamine, especially within one hour of ingesting the disclosed composition. Typically, an average person consumes 5-10 grams glutamine per day. In one embodiment, a person being treated with the present composition consumes no glutamine within one hour of ingestion, and preferably consumes less than about 5 grams glutamine per day, more preferably less than about 4.5 grams glutamine per day, and most preferably less than about 4 grams glutamine per day.

NC(=O)CC[C@H](N)C(=O)O [glutamine]
effect on the therapeutic effect of the disclosed compositions: counteracts the therapeutic effect
